Experimental data published in ChEMBL document CHEMBL1136611, “Design, synthesis, and evaluation of beta-galactosylceramide mimics promoting beta-glucocerebrosidase activity in keratinocytes” (2003).

Assays:
[1] = molecular target: T1, Lysosomal acid glucosylceramidase (Homo sapiens) (UniProt P04062); assay: In vitro beta--Glucocerebrosidase (beta-GlcCer'ase) activity in cultured human keratinocytes; format: cell-based; parameters: reference not given here
T1 sequence (whole entry): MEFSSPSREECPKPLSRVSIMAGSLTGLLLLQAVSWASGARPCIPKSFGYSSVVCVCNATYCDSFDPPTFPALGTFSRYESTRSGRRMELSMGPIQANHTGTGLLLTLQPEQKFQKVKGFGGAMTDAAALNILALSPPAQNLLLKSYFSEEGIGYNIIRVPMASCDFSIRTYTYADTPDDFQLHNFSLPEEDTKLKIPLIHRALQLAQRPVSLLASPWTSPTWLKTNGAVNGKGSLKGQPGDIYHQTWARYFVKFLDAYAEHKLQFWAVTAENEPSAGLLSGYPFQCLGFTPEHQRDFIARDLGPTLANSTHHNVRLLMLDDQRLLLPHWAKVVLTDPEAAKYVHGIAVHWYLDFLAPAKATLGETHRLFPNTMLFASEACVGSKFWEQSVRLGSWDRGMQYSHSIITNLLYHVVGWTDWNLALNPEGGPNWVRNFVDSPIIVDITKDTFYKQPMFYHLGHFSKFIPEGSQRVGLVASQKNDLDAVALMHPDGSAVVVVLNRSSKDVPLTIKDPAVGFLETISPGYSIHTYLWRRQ

Mus musculus [2] = species: Mus musculus; assay: […] effect on UVB-induced murine epidermal barrier disruption to control water loss in mice in experiment 1; format: functional
Mus musculus [3] = species: Mus musculus; assay: […] effect on UVB-induced murine epidermal barrier disruption to control water loss in mice in experiment 2; format: functional

Activity [1]	Structure (SMILES)	TEWL (Mus musculus [2])	TEWL (Mus musculus [3])
1.2	CCCCCCCCCCCCCCCCCC(=O)N[C@@H](CO[C@@H]1O[C@@H](CO)C(O)[C@H](O)[C@@H]1O)C(=O)NCCCCCCCCCC (single isomer, unassigned)		
1.24	CCCCCCCCCCCCCCCCCC(=O)N[C@@H](CO[C@@H]1O[C@@H](CO)C(O)[C@H](O)[C@@H]1O)C(=O)NCCCCCCCCCCCCCC (single isomer, unassigned)		
1.42	CCCCCCCCCCCCCCCCCC(=O)N[C@@H](CO[C@@H]1O[C@@H](CO)C(O)[C@H](O)[C@@H]1O)C(=O)NCCCCCC (single isomer, unassigned)	2.01	2.19
0.87	CCCCCCCCCCCCCCNC(=O)[C@H](CO[C@@H]1O[C@@H](CO)C(O)[C@H](O)[C@@H]1O)NC(=O)CCCCCCC (single isomer, unassigned)		
1.37	CCCCCCCCCCCCCCCC(=O)N[C@@H](CO[C@@H]1O[C@@H](CO)C(O)[C@H](O)[C@@H]1O)C(=O)NCCCCCCCCCCCCCC (single isomer, unassigned)		
